From PMC8398451, “Molecular Engineering of Curcumin, an Active Constituent of Curcuma longa L. (Turmeric) of the Family Zingiberaceae with Improved Antiproliferative Activity” (Plants, 2021)
Where two headings read alike, the source gives them in different places.

How the values were obtained:
[1] = test system: K-562; experiment: NCI antiproliferative SRB assay, Leukemia panel; type: cell-based, Human; conditions: for %GI / GP (growth percent): one dose 10 µM
[2] = test system: KM12; experiment: NCI antiproliferative SRB assay, Colon Cancer panel; type: cell-based, Human; conditions: for %GI / GP (growth percent): one dose 10 µM
[3] = test system: SW-620; experiment: as above; type: cell-based, Human; conditions: for %GI / GP (growth percent): one dose 10 µM
[4] = test system: SF-268; experiment: NCI antiproliferative SRB assay, CNS Cancer panel; type: cell-based, Human; conditions: for %GI / GP (growth percent): one dose 10 µM
[5] = test system: SF-295; experiment: NCI antiproliferative SRB assay, CNS Cancer panel; type: cell-based, Human; conditions: for %GI / GP (growth percent): one dose 10 µM
[6] = test system: SNB-19; experiment: NCI antiproliferative SRB assay, CNS Cancer panel; type: cell-based, Human; conditions: for %GI / GP (growth percent): one dose 10 µM
[7] = test system: U251; experiment: NCI antiproliferative SRB assay, CNS Cancer panel; type: cell-based; conditions: U251; for %GI / GP (growth percent): one dose 10 µM
[8] = test system: SK-MEL-2; experiment: NCI antiproliferative SRB assay, Melanoma panel; type: cell-based, Human; conditions: for %GI / GP (growth percent): one dose 10 µM
[9] = test system: SK-MEL-5; experiment: NCI antiproliferative SRB assay, Melanoma panel; type: cell-based, Human; conditions: for %GI / GP (growth percent): one dose 10 µM
[10] = test system: IGROV1; experiment: NCI antiproliferative SRB assay, Ovarian Cancer panel; type: cell-based, Human; conditions: for %GI / GP (growth percent): one dose 10 µM
[11] = test system: PC-3; experiment: NCI antiproliferative SRB assay, Prostate Cancer panel; type: cell-based, Human; conditions: for %GI / GP (growth percent): one dose 10 µM
[12] = test system: T-47D; experiment: NCI antiproliferative SRB assay, Breast Cancer panel; type: cell-based, Human; conditions: for %GI / GP (growth percent): one dose 10 µM
[13] = test system: MDA-MB-468; experiment: as above; type: cell-based, Human; conditions: for %GI / GP (growth percent): one dose 10 µM
Protocol: The antiproliferative activity of tested compounds was done against five dozen (60) cancer cell lines derived from nine different panels. All of the compounds were evaluated for antiproliferative activity in a single dose at 10 µM. Growth percent (GP) and percent growth inhibition (% GI) were used to calculate antiproliferative activity. […] The antiproliferative results of five-dose assay were calculated as three dose related parameters like, 50% growth inhibition (GI50), 50% lethal concentration (LC50), and total growth inhibition TGI [43, 44, 45, 46, 47].
Human tumor cell lines were grown in RPMI 1640 medium containing 5% fetal bovine serum and 2 mM L-glutamine. For a typical screening experiment, cells were inoculated into 96-well microtiter plates in 100 µL at plating densities ranging from 5000 to 40,000 cells/well, depending on the doubling time of individual cell lines. Two plates of each cell line were fixed in situ with trichloroacetic acid (TCA) after 24 h to represent a cell population measurement for each cell line at the time of drug addition (Ti). The experimental drugs were frozen after being solubilized in dimethyl sulfoxide at 400-fold the desired final maximum test concentration. An aliquot of frozen concentrate was thawed and diluted to twice the desired final maximum test concentration with medium containing 50 µg/mL gentamicin at the time of drug addition. Additional four, 10-fold, or ½ log serial dilutions serial dilutions were performed to provide a total of five drug concentrations plus the control. Aliquots of 100 µL of these different drug dilutions were added to the appropriate microtiter wells already containing 100 µL of medium, resulting in the required final drug concentrations. Following drug addition, the plates are incubated for an additional 48 h at 37 °C, 5% CO2, 95% air, and 100% relative humidity. For adherent cells, the assay is terminated by the addition of cold TCA. Cells are fixed in situ by the gentle addition of 50 µL of cold 50% (w/v) TCA (final concentration, 10% TCA) and incubated for 60 min at 4 °C. The supernatant is discarded, and the plates are washed five times with tap water and air dried. Sulforhodamine B (SRB) solution (100 µL) at 0.4% (w/v) in 1% acetic acid was added to each well, and plates were incubated for 10 min at room temperature. After staining, unbound dye was removed by washing five times with 1% acetic acid and the plates were air dried. Bound stain was subsequently solubilized with 10 mM trizma base, and the absorbance was read on an automated plate reader at a wavelength of 515 nm. For suspension cells, the methodology was the same except that the assay was terminated by fixing settled cells at the bottom of the wells by gently adding 50 µL of 80% TCA (final concentration, 16% TCA). […]
Antiproliferative activity
The anticancer screening was carried ou t as per the NCI US protocol. Using the seven absorbance measurements (time zero, (Ti), control growth, (C), and test growth in the presence of drug at the five concentration levels (Tf)), the percentage growth was calculated at each of the drug concentrations level as [( Tf−Ti × 100 for concentrations for which Tf ≥ Ti, and Tf−Ti × 100 for […]
concentrations for which Tf < Ti.
Three-dose response parameters (GI50, TGI, and LC50) were calculated for each of the experimental agents. Growth inhibition of 50% (GI50) was calculated from 100 × Tf−Ti = 50, , which was […]
the drug concentration resulting in a 50% reduction in the net protein increase (as measured by sulforhodamine B, SRB staining) in control cells during the drug incubation. The total growth inhibition (TGI) was calculated from Tf = Ti, which was the drug concentration resulting in total growth inhibition and signified the cytostatic effect. The LC50 was calculated from 100 × Tf−Ti = −50, , indicating a net loss […]
of cells following treatment which indicated the concentration of drug resulting in a 50% reduction in the […]

[14] = test system: Melanoma cell line panel; experiment: NCI antiproliferative assay, panel summary; type: cell-based, Human; conditions: for Mean % GI: 10 µM
[15] = test system: 60 NCI cancer cell lines; experiment: NCI antiproliferative assay, summary over all lines; type: cell-based; conditions: for GI50: Homo sapiens, 5-dose assay; for Mean % GI / Mean GP: mean over cell lines, one dose 10 µM
[16] = Homo sapiens, 5-dose 0.01-100 µM
[17] = Homo sapiens, 5-dose 0.01-100 µM, read-out: LC50 (the source's name)
[18] = Homo sapiens, T47D, 5-dose 0.01-100 µM

Compound `COc1cc(/C=C/c2cc(/C=C/c3ccc(O)c(OC)c3)n(C(=O)Nc3ccc(C(F)(F)F)cc3)n2)ccc1O` [3c] has a TGI ([1]; 5-dose 0.01-100 µM) of over 100 µM, a GI50 ([1]; Homo sapiens, K562, 5-dose 0.01-100 µM) of 2.53 µM and a CC50 ([1]; Homo sapiens, K562, 5-dose 0.01-100 µM, read-out: LC50 (the source's name)) of over 100 µM. The “%GI” value [1] was 90.55%, the “GP (growth percent)” value [1] was 9.45 and the TGI ([2]; 5-dose 0.01-100 µM) was 5.59 µM. For the same compound, the GI50 [2, 16] was 2.33 µM, the CC50 [2, 17] was 54 µM and the “%GI” value [2] was 58.62%. The “GP (growth percent)” value [2] was 41.38, the TGI ([3]; 5-dose 0.01-100 µM) was 5.90 µM and the GI50 [3, 16] was 2.56 µM. The CC50 [3, 17] was 33.6 µM, the “%GI” value [3] was 82.00% and the “GP (growth percent)” value [3] was 18.00. The TGI ([4]; 5-dose 0.01-100 µM) was 15.4 µM, the GI50 [4, 16] was 2.8 µM and the CC50 [4, 17] was over 100 µM. The “%GI” value [4] was 62.88%, the “GP (growth percent)” value [4] was 37.12 and the TGI ([5]; 5-dose 0.01-100 µM) was 9.85 µM. For the same compound, the GI50 [5, 16] was 2.89 µM, the CC50 [5, 17] was 76.5 µM and the “%GI” value [5] was 16.58%. For the same compound, the “GP (growth percent)” value [5] was 83.42, the TGI ([6]; 5-dose 0.01-100 µM) was 11.2 µM and the GI50 [6, 16] was 3.16 µM. For the same compound, the CC50 [6, 17] was 36.9 µM, the “%GI” value [6] was 51.32% and the “GP (growth percent)” value [6] was 48.68. It also gave a GI50 ([7]; Homo sapiens, U-251, 5-dose 0.01-100 µM, read-out: GI50) of 2.49 µM, a CC50 ([7]; Homo sapiens, U-251, 5-dose 0.01-100 µM, read-out: LC50 (the source's name)) of over 100 µM and a TGI ([7]; 5-dose 0.01-100 µM) of 6.86 µM. For the same compound, the “%GI” value [7] was 90.29%, the “GP (growth percent)” value [7] was 9.71 and the TGI ([8]; 5-dose 0.01-100 µM) was 17.3 µM. For the same compound, the GI50 [8, 16] was 3.15 µM, the CC50 [8, 17] was over 100 µM and the “%GI” value [8] was 15.53%. The “GP (growth percent)” value [8] was 84.47, the TGI ([9]; 5-dose 0.01-100 µM) was 6.89 µM and the GI50 [9, 16] was 2.27 µM. For the same compound, the CC50 [9, 17] was 28 µM, the “%GI” value [9] was 64.60% and the “GP (growth percent)” value [9] was 35.40. The TGI ([10]; 5-dose 0.01-100 µM) was 11.6 µM, the GI50 ([10]; Homo sapiens, IGROV-1, 5-dose 0.01-100 µM) was 2.77 µM and the CC50 ([10]; Homo sapiens, IGROV-1, 5-dose 0.01-100 µM, read-out: LC50 (the source's name)) was over 100 µM. For the same compound, the “%GI” value [10] was 57.18%, the “GP (growth percent)” value [10] was 42.82 and the TGI ([11]; 5-dose 0.01-100 µM) was 13.5 µM. The GI50 [11, 16] was 3.21 µM, the CC50 [11, 17] was over 100 µM and the “%GI” value [11] was 61.97%. The “GP (growth percent)” value [11] was 38.03, the TGI ([12]; 5-dose 0.01-100 µM) was 39.0 µM and the GI50 [12, 18] was 2.81 µM. The LC50 (lethal concentration, 50% cell kill) [12, 18] was over 100 µM, the “%GI” value [12] was 52.60% and the “GP (growth percent)” value [12] was 47.40. The LC50 (50% lethal concentration) ([13]; Homo sapiens, MDA-MB-468, read-out: LC50) was over 100 µM, the GI50 ([13]; Homo sapiens, MDA-MB-468, 5-dose 0.01-100 µM) was 2.3 µM and the TGI ([13]; MDA-MB-468, 5-dose 0.01-100 µM) was 6.25 µM. For the same compound, the “%GI” value ([13]; MDA-MB-468) was 56.21%, the “GP (growth percent)” value ([13]; MDA-MB-468) was 43.79 and the “Mean % GI” value [14] was 60.81%. For the same compound, the GI50 ([14]; Homo sapiens, 5-dose assay, read-out: Sub Panel MID b (mean GI50 of panel)) was 2.51 µM, the GI50 ([15]; read-out: GI50 values, range over cell lines) was 1.48 to 7.29 µM and the GI50 ([15]; read-out: MID a (mean GI50 of 60 NCI cancer cell lines)) was 2.84 µM. For the same compound, the “Mean % GI” value [15] was 59.26% and the “Mean GP” value [15] was 40.74.

For `COc1ccc(/C=C/c2cc(/C=C/c3ccc(OC)c(O)c3)n(-c3cccc(Cl)c3)c(=S)n2)cc1O` [3a], the “%GI” value [1] was 40.77%, the “GP (growth percent)” value [1] was 59.23 and the “%GI” value [2] was 19.67%. The “GP (growth percent)” value [2] was 80.33, the “%GI” value [3] was 10.52% and the “GP (growth percent)” value [3] was 89.48. For the same compound, the “%GI” value [4] was 16.24%, the “GP (growth percent)” value [4] was 83.76 and the “%GI” value [5] was −9.94%. The “GP (growth percent)” value [5] was 109.94, the “%GI” value [6] was 15.45% and the “GP (growth percent)” value [6] was 84.55. For the same compound, the “%GI” value [7] was 40.59%, the “GP (growth percent)” value [7] was 59.41 and the “%GI” value [8] was 4.85%. For the same compound, the “GP (growth percent)” value [8] was 95.15, the “%GI” value [9] was 21.01% and the “GP (growth percent)” value [9] was 78.99. For the same compound, the “%GI” value [10] was 4.74%, the “GP (growth percent)” value [10] was 95.26 and the “%GI” value [11] was 10.79%. The “GP (growth percent)” value [11] was 89.21, the “%GI” value [12] was 36.18% and the “GP (growth percent)” value [12] was 63.82. The “%GI” value ([13]; MDA-MB-468) was 16.19%, the “GP (growth percent)” value ([13]; MDA-MB-468) was 83.81 and the “Mean % GI” value [14] was 17.21%. For the same compound, the “Mean % GI” value [15] was 17.68% and the “Mean GP” value [15] was 82.32.
